Reference: patent publication US20230121313A1 (priority 2019, published 2023)

Key:
[1] = tested on: subjects with MDD at imminent risk for suicide; experiment: Beck Hopelessness Scale (BHS), Study […]2001; format: in vivo, human; conditions: 84 mg; for BHS total score change, Diff. of LS Means (minus Placebo): ANCOVA LOCF; for BHS total score, change from baseline, mean / BHS total score, change from baseline, median / BHS total score, mean / BHS total score, median: LOCF, N 35
From the text: (§1) • a. Changes from baseline to Day 2 and Day 25 for the MADRS total score • b. Changes from baseline to Day 1 4-hours postdose, Day 2 and Day 25 for the MADRS Suicide Item • c. Changes from baseline to Day 1 4-hours postdose, Day 2, and Day 25 for the clinical global judgment of suicide risk from the Suicide Ideation and Behavior Assessment Tool (SIBAT) • d. Sustained response (Onset of Clinical Response) defined as at least 50% reduction from baseline in MADRS total score with onset on Day 1 that is maintained through the end of the double-blind phase (Day 25) • e. Changes from baseline to Day 1 4-hours postdose, Day 2, and Day 25 for the Beck Scale for Suicidal Ideation (BSS) • f. Changes from baseline to Day 1 4-hours postdose and Day 25 for the Beck Hopelessness Scale
The BHS is a self-reported measure to assess one's level of negative expectations or pessimism regarding the future. It consists of 20 true-false items that examine the respondent's attitude over the past week by either endorsing a pessimistic statement or denying an optimistic statement. For every statement, each response is assigned a score of 0 or 1. The total BHS score is a sum of item responses and ranges from 0 to 20, with a higher score representing a higher level of hopelessness.

[2] = tested on: patients with treatment-resistant depression (TRD); experiment: CADSS, phase 2 dose-response study in TRD; format: in vivo, human
Description: Adverse events were monitored throughout the study. Other safety assessments (i.e., laboratory tests, vital signs, physical examination) were performed at pre-specified time points. Vital signs, the Clinician Administered Dissociative States Scale (CADSS; Bremner, “Measurement of dissociative states with the clinician-administered dissociative states scale (CADSS)”, J. Traumatic Stress, 1998, 11(1):125-136), and the 4-item positive symptom subscale from the Brief Psychiatric Rating Scale (BPRS; Overall, “The Brief Psychiatric Rating Scale. Psychological Reports”, 1962, 10:799-812) were assessed pre-dose, at 40 minutes, and 2 hours post-dose.

[3] = tested on: subjects with MDD at imminent risk for suicide; conditions: human, in vivo, other: intranasal, 84 mg
Description: The CADSS was measured prior to the start of each dose, at 40 minutes, 2 hours, and 4 hours postdose.

[4] = tested on: patients with treatment-resistant depression (TRD); experiment: Vital signs (blood pressure, heart rate), phase 2 dose-response study in TRD; format: in vivo, human
[5] = tested on: subjects with MDD at imminent risk for suicide; experiment: MADRS suicide item, Study […]2001; format: in vivo, human; conditions: 84 mg
From the text: as §1
Results of the change from baseline over time for the suicide item from the MADRS assessment can be found in Attachment 1.

[6] = tested on: adult subjects with TRD; conditions: in vivo
Description: Blood pressure and pulse/heart rate measurements were assessed supine with a completely automated device. Manual techniques were used only if an automated device is not available. Blood pressure and pulse/heart rate measurements were preceded by at least 5 minutes of rest in a quiet setting without distractions (e.g., television, cell phones).
Descriptive statistics of temperature, pulse/heart rate, respiratory rate, pulse oximetry, and blood pressure (systolic and diastolic) (supine) values and changes from baseline were summarized at each scheduled time point. The percentage of subjects with values beyond clinically important limits were summarized.

With `CN[C@]1(c2ccccc2Cl)CCCCC1=O` [esketamine, (S)-2-(2-chlorophenyl)-2-(methylamino)cyclohexanone] the “BHS total score change, Diff. of LS Means (minus Placebo)” value ([1]; Day 1 (DB): 4 H) was −1.5, the “BHS total score, change from baseline, mean” value ([1]; Day 1 (DB): 4 H) was −4.1 and the “BHS total score, change from baseline, median” value ([1]; Day 1 (DB): 4 H) was −2.0. For the same compound, the “BHS total score, mean” value ([1]; Day 1 (DB): 4 H) was 12.3, the “BHS total score, median” value ([1]; Day 1 (DB): 4 H) was 14.0 and the “BHS total score change, Diff. of LS Means (minus Placebo)” value ([1]; End Point (DB)) was −2.3. The “BHS total score, change from baseline, mean” value ([1]; End Point (DB)) was −10.3, the “BHS total score, change from baseline, median” value ([1]; End Point (DB)) was −11.0 and the “BHS total score, mean” value ([1]; End Point (DB)) was 6.2. For the same compound, the “BHS total score, median” value ([1]; End Point (DB)) was 4.0, the “CADSS perceptual changes/dissociative symptoms resolved by” value [2] was at most 2 h and the “CADSS perceptual changes/dissociative symptoms: time of peak” value [2] was 30 to 40 min. For the same compound, the “CADSS dissociative and perceptual change symptoms resolved by (postdose)” value [3] was at most 2 h, the “Diastolic blood pressure: maximum mean change on dosing days” value [4] was 10.3 mmHg and the “Elevated blood pressure returned to the normal range by (post-dose)” value [4] was at most 2 h. For the same compound, the “Heart rate: maximum mean change on dosing days” value [4] was 9.4 bpm, the “Systolic blood pressure: maximum mean change on dosing days” value [4] was 19.0 mmHg and the “Maximum diastolic blood pressure value” ([4]; 10 or 40 minutes post-dose) was 115 mmHg. For the same compound, the “Maximum systolic blood pressure value” ([4]; 10 or 40 minutes post-dose) was 199 mmHg, the “MADRS suicide item (Suicidal Thoughts), Med” value ([5]; Day 1 (DB): 4 H, LOCF, N 35) was 2.0 and the “MADRS suicide item, change from baseline, Med” value (from here on “MADRS suicide item, change”) ([5]; Day 1 (DB): 4 H, LOCF, N 35) was −3.0. The “MADRS suicide item (Suicidal Thoughts), Med” value ([5]; Day 1(DB): 4 H, N 35) was 2.0, the “MADRS suicide item, change” value ([5]; Day 1(DB): 4 H, N 35) was −3.0 and the “MADRS suicide item (Suicidal Thoughts), Med” value ([5]; Day 2(DB) LOCF, N 35) was 2.0. For the same compound, the “MADRS suicide item, change” value ([5]; Day 2(DB) LOCF, N 35) was −3.0, the “MADRS suicide item (Suicidal Thoughts), Med” value ([5]; Day 2(DB), N 35) was 2.0 and the “MADRS suicide item, change” value ([5]; Day 2(DB), N 35) was −3.0. The “MADRS suicide item (Suicidal Thoughts), Med” value ([5]; Day 3(DB) LOCF, N 35) was 2.0, the “MADRS suicide item, change” value ([5]; Day 3(DB) LOCF, N 35) was −4.0 and the “MADRS suicide item (Suicidal Thoughts), Med” value ([5]; Day 3(DB), N 32) was 2.0. For the same compound, the “MADRS suicide item, change” value ([5]; Day 3(DB), N 32) was −4.0, the “MADRS suicide item (Suicidal Thoughts), Med” value ([5]; Day 4(DB) LOCF, N 35) was 1.0 and the “MADRS suicide item, change” value ([5]; Day 4(DB) LOCF, N 35) was −4.0. The “MADRS suicide item (Suicidal Thoughts), Med” value ([5]; Day 4(DB), N 24) was 1.0, the “MADRS suicide item, change” value ([5]; Day 4(DB), N 24) was −4.0 and the “MADRS suicide item (Suicidal Thoughts), Med” value ([5]; Day 5(DB) LOCF, N 35) was 1.0. For the same compound, the “MADRS suicide item, change” value ([5]; Day 5(DB) LOCF, N 35) was −4.0, the “MADRS suicide item (Suicidal Thoughts), Med” value ([5]; Day 5(DB), N 21) was 0.0 and the “MADRS suicide item, change” value ([5]; Day 5(DB), N 21) was −4.0. For the same compound, the “MADRS suicide item (Suicidal Thoughts), Med” value ([5]; Day 8(DB) LOCF, N 35) was 1.0, the “MADRS suicide item, change” value ([5]; Day 8(DB) LOCF, N 35) was −4.0 and the “MADRS suicide item (Suicidal Thoughts), Med” value ([5]; Day 8(DB), N 31) was 1.0. The “MADRS suicide item, change” value ([5]; Day 8(DB), N 31) was −4.0, the “MADRS suicide item (Suicidal Thoughts), Med” value ([5]; Day 11(DB) LOCF, N 35) was 1.0 and the “MADRS suicide item, change” value ([5]; Day 11(DB) LOCF, N 35) was −4.0. For the same compound, the “MADRS suicide item (Suicidal Thoughts), Med” value ([5]; Day 11(DB), N 25) was 0.0, the “MADRS suicide item, change” value ([5]; Day 11(DB), N 25) was −4.0 and the “MADRS suicide item (Suicidal Thoughts), Med” value ([5]; Day 15(DB) LOCF, N 35) was 1.0. The “MADRS suicide item, change” value ([5]; Day 15(DB) LOCF, N 35) was −4.0, the “MADRS suicide item (Suicidal Thoughts), Med” value ([5]; Day 15(DB), N 29) was 1.0 and the “MADRS suicide item, change” value ([5]; Day 15(DB), N 29) was −4.0. The “MADRS suicide item (Suicidal Thoughts), Med” value ([5]; Day 18(DB) LOCF, N 35) was 1.0, the “MADRS suicide item, change” value ([5]; Day 18(DB) LOCF, N 35) was −4.0 and the “MADRS suicide item (Suicidal Thoughts), Med” value ([5]; Day 18(DB), N 23) was 1.0. The “MADRS suicide item, change” value ([5]; Day 18(DB), N 23) was −4.0, the “MADRS suicide item (Suicidal Thoughts), Med” value ([5]; Day 22(DB) LOCF, N 35) was 0.0 and the “MADRS suicide item, change” value ([5]; Day 22(DB) LOCF, N 35) was −4.0. For the same compound, the “MADRS suicide item (Suicidal Thoughts), Med” value ([5]; Day 22(DB), N 28) was 0.0, the “MADRS suicide item, change” value ([5]; Day 22(DB), N 28) was −4.0 and the “MADRS suicide item (Suicidal Thoughts), Med” value ([5]; Day 25(DB): 4 H, N 24) was 0.0. The “MADRS suicide item, change” value ([5]; Day 25(DB): 4 H, N 24) was −4.5, the “MADRS suicide item (Suicidal Thoughts), Med” value ([5]; Day 25(DB): Predose LOCF, N 35) was 0.0 and the “MADRS suicide item, change” value ([5]; Day 25(DB): Predose LOCF, N 35) was −4.0. For the same compound, the “MADRS suicide item (Suicidal Thoughts), Med” value ([5]; Day 25(DB): Predose, N 24) was 0.0, the “MADRS suicide item, change” value ([5]; Day 25(DB): Predose, N 24) was −4.5 and the “MADRS suicide item (Suicidal Thoughts), Med” value ([5]; Day 32(FU) LOCF, N 26) was 0.0. The “MADRS suicide item, change” value ([5]; Day 32(FU) LOCF, N 26) was −4.0, the “MADRS suicide item (Suicidal Thoughts), Med” value ([5]; Day 32(FU), N 26) was 0.0 and the “MADRS suicide item, change” value ([5]; Day 32(FU), N 26) was −4.0. The “MADRS suicide item (Suicidal Thoughts), Med” value ([5]; Day 39(FU) LOCF, N 27) was 0.0, the “MADRS suicide item, change” value ([5]; Day 39(FU) LOCF, N 27) was −5.0 and the “MADRS suicide item (Suicidal Thoughts), Med” value ([5]; Day 39(FU), N 26) was 0.0. For the same compound, the “MADRS suicide item, change” value ([5]; Day 39(FU), N 26) was −5.0, the “MADRS suicide item (Suicidal Thoughts), Med” value ([5]; Day 46(FU) LOCF, N 27) was 0.0 and the “MADRS suicide item, change” value ([5]; Day 46(FU) LOCF, N 27) was −4.0. For the same compound, the “MADRS suicide item (Suicidal Thoughts), Med” value ([5]; Day 46(FU), N 25) was 0.0, the “MADRS suicide item, change” value ([5]; Day 46(FU), N 25) was −4.0 and the “MADRS suicide item (Suicidal Thoughts), Med” value ([5]; Day 53(FU) LOCF, N 27) was 0.0. The “MADRS suicide item, change” value ([5]; Day 53(FU) LOCF, N 27) was −4.0, the “MADRS suicide item (Suicidal Thoughts), Med” value ([5]; Day 53(FU), N 24) was 0.0 and the “MADRS suicide item, change” value ([5]; Day 53(FU), N 24) was −5.0. The “MADRS suicide item (Suicidal Thoughts), Med” value ([5]; Day 67(FU) LOCF, N 27) was 0.0, the “MADRS suicide item, change” value ([5]; Day 67(FU) LOCF, N 27) was −4.0 and the “MADRS suicide item (Suicidal Thoughts), Med” value ([5]; Day 67(FU), N 26) was 0.0. For the same compound, the “MADRS suicide item, change” value ([5]; Day 67(FU), N 26) was −4.0, the “MADRS suicide item (Suicidal Thoughts), Med” value ([5]; Day 81(FU), N 24) was 0.0 and the “MADRS suicide item, change” value ([5]; Day 81(FU), N 24) was −5.0. For the same compound, the “MADRS suicide item (Suicidal Thoughts), Med” value ([5]; End Point(DB), N 35) was 0.0, the “MADRS suicide item, change” value ([5]; End Point(DB), N 35) was −4.0 and the “MADRS suicide item (Suicidal Thoughts), Med” value ([5]; End Point(FU), N 27) was 0.0. For the same compound, the “MADRS suicide item, change” value ([5]; End Point(FU), N 27) was −5.0, the “Maximum mean increase in diastolic BP (across all dosing days)” value [6] was 8.1 and the “Transient blood pressure increases: returned to normal range at” value [6] was 90 min. The “Transient blood pressure increases: time of peak post dose” value [6] was “approximately 40 minutes”.
